The values below come from patent publication US8772489B2, “Optically active 2-hydroxy tetrahydrothienopyridine derivatives, preparation method and use in manufacture of medicament thereof” (Jiangsu Vcare PharmaTech Co. Ltd., priority 2010, dated 2014).

SMILES strings stand for the structures. Structures can show the parent of a compound that is named as a salt. Where two headings read alike, the source gives them in different places.

One data set relates to platelet aggregation. In words: animal or person. It is filed as in vivo. To be noted: Rattus norvegicus, read-out: Aggregation inhibition (%). An excerpt:
The positive control and the test compounds (prepared in the above examples) were formulated in 0.5% CMC-Na (carboxymethylcellulose sodium) into suspensions for administration to animals.
Animals: male SD rats, weighed about 250 g, and supplied by Shanghai Super-B&K Laboratory Animal Corp. Ltd. Animal certificate No.: 2008001605451, and license No.: SCXK (Hu); SCXK (Hu) 2008-0016.
Instruments: a centrifuge (80-2 bench top low-speed centrifuge), an automatic platelet aggregation tester (STELLEXLG-PAPER-I platelet coagulation/aggregation analyzer), and others.
Methods: the pharmacological activity test of the compounds of the present invention for platelet aggregation was performed following Born's turbidimetric method (Nature, 1962, 194(4832): 927). An agglomeration-promoting substance, adenosine diphosphate (ADP), was added to a platelet rich plasma (PRP), and stirred to allow platelets to aggregate. […] This experiment can be used to evaluate the platelet aggregation effect induced by the test compounds administrated in-vivo or in-vitro.
The PRP was adjusted with a platelet poor plasma (PPP) to maintain the platelet counts at […]. The PRP was taken into a test cup, and incubated at 37° C. for 10 min. Light transmission was adjusted to 0% with PRP and to 100% with PPP for each measurement. By using ADP (with a final concentration of 5 μM) as an inducer, the platelet aggregation percentages were measured through the turbidimetric method using a platelet aggregation tester, and statistically compared by t-test. The platelet aggregation inhibition was calculated by the equation: platelet aggregation inhibition (%)=[1−(aggregation percent in dosed tube/aggregation percent in control tube)]×100%.

For data set [1], the target named is human carboxylesterase 1 (hCE1) (Homo sapiens, UniProt P23141). Conditions: in vivo, J Pharmacol Exp Ther, 2006, 319: 1467; cited from earlier work.
human carboxylesterase 1 (hCE1), sequence (P23141 18-567): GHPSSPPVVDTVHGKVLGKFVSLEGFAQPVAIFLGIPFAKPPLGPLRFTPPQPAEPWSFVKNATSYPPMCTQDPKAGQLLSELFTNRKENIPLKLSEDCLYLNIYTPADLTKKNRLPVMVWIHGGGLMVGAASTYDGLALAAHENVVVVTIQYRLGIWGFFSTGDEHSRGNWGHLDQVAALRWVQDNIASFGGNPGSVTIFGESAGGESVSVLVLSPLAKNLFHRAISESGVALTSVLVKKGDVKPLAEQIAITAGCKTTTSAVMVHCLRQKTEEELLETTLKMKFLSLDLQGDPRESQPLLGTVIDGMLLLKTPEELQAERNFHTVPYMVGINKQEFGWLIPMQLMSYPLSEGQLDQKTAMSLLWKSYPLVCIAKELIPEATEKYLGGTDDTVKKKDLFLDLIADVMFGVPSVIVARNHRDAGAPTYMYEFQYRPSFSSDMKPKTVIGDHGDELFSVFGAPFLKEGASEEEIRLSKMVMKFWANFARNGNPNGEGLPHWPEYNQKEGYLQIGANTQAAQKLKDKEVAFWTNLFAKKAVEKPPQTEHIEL
Where [2] appears, read: male SD rats, oral gavage 3 mg/kg, blood after 2 hrs, ADP 5 μM.
Setting [3] is: male SD rats, oral gavage 10 mg/kg, blood after 2 hrs, ADP 5 μM.

The melting point is the temperature, or range, at which the solid turns liquid. What is called inhibition is the share of the control response that was lost under treatment. In turn, `COC(=O)[C@H](c1ccccc1Cl)N1CCc2sc(OC(=O)c3ccccc3)cc2C1` [Compound I-1, (S)-Methyl 2-(2-benzoyloxy-6,7-dihydrothieno[3,2-c]pyridin-5(4H)-yl)-2-(2-chlorophenyl)-acetate] displayed a melting point of 84 to 86 °C. For the same compound, in the data set with platelet aggregation (setting [2]), the inhibition at 3 mg/kg worked out at 41.1%.
For `COC(=O)[C@H](c1ccccc1Cl)N1CCc2sc(OC(=O)c3cccnc3)cc2C1` [Compound I-6, (S)-methyl 2-(2-nicotinoyloxy-6,7-dihydrothieno[3,2-c]pyridin-5(4H)-yl)-2-(2-chlorophenyl)-acetate], the melting point lay in the range of 92 to 94 °C. Besides, the inhibition at 3 mg/kg in the data set on platelet aggregation (setting [2]) was determined as 31.3%.
The corresponding values for `COC(=O)[C@H](c1ccccc1Cl)N1CCc2sc(OC(=O)/C=C/c3ccccc3)cc2C1` [Compound I-9, (S)-methyl 2-(2-cinnamoyloxy-6,7-dihydrothieno[3,2-c]pyridin-5(4H)-yl)-2-(2-chlorophenyl)-acetate] are 122 to 124 °C and 30.3%.
Compound `CCC(C)(C)C(=O)Oc1cc2c(s1)CCN([C@H](C(=O)OC)c1ccccc1Cl)C2` [Compound I-8, (S)-Methyl 2-(2-(2,2-dimethylbutanoyloxy)-6,7-dihydrothieno[3,2-c]pyridin-5(4H)-yl)-2-(2-chlorophenyl)-acetate] displayed a melting point of 98 to 100 °C. Besides, the inhibition at 3 mg/kg with platelet aggregation (setting [2]) came to 35.7%.
Compound `COC(=O)[C@H](c1ccccc1Cl)N1CCc2sc(OC(=O)c3ccc([N+](=O)[O-])cc3)cc2C1` [Compound I-10, (S)-methyl 2-(2-(4-nitrobenzoyloxy)-6,7-dihydrothieno[3,2-c]pyridin-5(4H)-yl)-2-(2-chlorophenyl)-acetate] gave a melting point of 100 to 102 °C. Besides, the inhibition at 3 mg/kg with platelet aggregation (setting [2]) amounted to 36.8%.
Turning to `COC(=O)[C@H](c1ccccc1Cl)N1CCc2sccc2C1` [clopidogrel], the “share of the prototype drug hydrolyzed by hCE1 in the liver into an inactive carboxylic derivative” value in data set [1] was 85%.
For the compound `COC(=O)[C@H](c1ccccc1Cl)N1CCc2sc(OC(=O)N(C)C)cc2C1` [Compound I-18, (S)-Methyl 2-(2-(N,N-dimethylcarbamoyloxy)-6,7-dihydrothieno[3,2-c]pyridin-5(4H)-yl)-2-(2-chlorophenyl)-acetate], the melting point lay in the range of 96 to 98 °C. The inhibition at 3 mg/kg in the data set on platelet aggregation (po, 2 h) was determined as 48.2%.
With `COC(=O)[C@H](c1ccccc1)N1CCc2sc(OC(C)=O)cc2C1` [Compound I-21, (S)-Methyl 2-(2-acetoxy-6,7-dihydrothieno[3,2-c]pyridin-5 (4H)-yl)-2-phenyl-acetate], the inhibition at 3 mg/kg in the data set with platelet aggregation (setting [2]) was found to be 9.1%.
Regarding `COC(=O)[C@H](c1ccccc1Cl)N1CCc2sc(OC(=O)N3CCCC3)cc2C1` [Compound I-22, (S)-Methyl 2-(2-(pyrrolidine-1-carbonyloxy)-6,7-dihydrothieno[3,2-c]pyridin-5(4H)-yl)-2-(2-chlorophenyl)-acetate], in the data set with platelet aggregation (po, 2 h), the inhibition at 3 mg/kg came out at 20.3%.
With `COC(=O)[C@H](c1ccccc1Cl)N1CCc2sc(OC(=O)Cc3ccccc3)cc2C1` [Compound I-12, (S)-Methyl 2-(2-phenylacetoxy-6,7-dihydrothieno[3,2-c]pyridin-5(4H)-yl)-2-(2-chlorophenyl)-acetate], the inhibition at 3 mg/kg with platelet aggregation (setting [2]) amounted to 18.3%.
`COC(=O)[C@H](c1ccccc1Cl)N1CCc2sc(OC(=O)COc3ccccc3)cc2C1` [Compound I-13, (S)-Methyl 2-(2-(phenoxyacetoxy)-6,7-dihydrothieno[3,2-c]pyridin-5(4H)-yl)-2-(2-chlorophenyl)-acetate] displayed a melting point of 104 to 106 °C. Further, the inhibition at 3 mg/kg in the data set with platelet aggregation (setting [2]) was 10.1%.
Take `COC(=O)[C@H](c1ccccc1Cl)N1CCc2sccc2C1` [Clopidogrel sulfate, reference compound]: in the data set with platelet aggregation (po, 2 h), the inhibition at 3 mg/kg is 15.4% and the inhibition at 10 mg/kg turned out to be 79.6%.
For the compound `COC(=O)[C@@H](c1ccccc1Cl)N1CCc2sc(OC(C)=O)cc2C1` [I-2′], the inhibition at 3 mg/kg in the data set on platelet aggregation (setting [2]) came to 27.1%. In addition, the inhibition at 10 mg/kg with platelet aggregation (setting [3]) came to 55.3%.
On to `COC(=O)[C@H](c1ccccc1Cl)N1CCc2sc(OC(=O)c3ccccc3OC(C)=O)cc2C1` [Compound I-5, (S)-methyl 2-(2-(2-acetoxybenzoyloxy)-6,7-dihydrothieno[3,2-c]pyridin-5(4H)-yl)-2-(2-chlorophenyl)-acetate], for which the inhibition at 3 mg/kg with platelet aggregation (po, 2 h) was 55.1%.
With `COC(=O)[C@H](c1ccccc1Cl)N1CCc2sc(OC(=O)c3ccc(OC)cc3)cc2C1` [Compound I-11, (S)-Methyl 2-(2-(4-methoxybenzoyloxy)-6,7-dihydrothieno[3,2-c]pyridin-5(4H)-yl)-2-(2-chlorophenyl)-acetate], in the data set with platelet aggregation (setting [2]), the inhibition at 3 mg/kg was determined as 13.6%.
For the compound `COC(=O)[C@H](c1ccccc1Cl)N1CCc2sc(OC(C)=O)cc2C1` [Compound I-2, (S)-Methyl 2-(2-acetoxy-6,7-dihydrothieno[3,2-c]pyridin-5(4H)-yl)-2-(2-chlorophenyl)-acetate], the inhibition at 3 mg/kg in the data set with platelet aggregation (setting [2]) was found to be 69.9%. Further, the inhibition at 10 mg/kg in the data set on platelet aggregation (setting [3]) amounted to 83.5%.
Take `CCOC(=O)Oc1cc2c(s1)CCN([C@H](C(=O)OC)c1ccccc1Cl)C2` [Compound I-14, (S)-Methyl 2-(2-(ethoxycarbonyloxy)-6,7-dihydrothieno[3,2-c]pyridin-5(4H)-yl)-2-(2-chlorophenyl)-acetate]: the melting point was 42 to 44 °C. The inhibition at 3 mg/kg in the data set with platelet aggregation (setting [2]) was determined as 62.9%.
